Measurements reported in US9132177B2, “Composition of tumor-associated peptides and related anti-cancer vaccine for the treatment of gastric cancer and other cancers” (priority 2010, dated 2015).

system: HLA-DR broad antigens (HLA-DR1 to DR7); experiment: ProImmune REVEAL MHC:peptide in vitro binding assay; design: species or system human; settings: HLA-DR1, 3, 4 and 11; result in words
Experimental: The ProImmune REVEAL™ technology employs in vitro HLA-DR assembly assays to determine the on-rates for the MHC:peptide complex as one major determinant of the binding constant of individual peptides. The assay was performed by ProImmune (Oxford, UK). At a fixed time point, the amount of intact MHC:peptide complexes is measured and compared with the amount for a pass/fail control (relative weak binder). A strong, promiscuous HLA-DR binder is included as positive control. Values indicate amount of binding for the individual peptides and HLA-DR molecules relative to the pass/fail control.
In this assay, binding was compared to that of a pass/fail control binder, and to a positive control peptide for each HLA-DR antigen.

| in vitro binding to HLA-DR | Sequence |
| --- | --- |
| promiscuous binding | TLGEFLKLDRERAKN (listed as Homo sapiens) [IMA-BIR-002] |

system: CD8+ T cells; experiment: In vitro priming of CD8+ T cells with pMHC/anti-CD28 coated beads, multimer staining readout; type: cell-based, human; settings: HLA-A*24 healthy donors, three stimulations, A*2402 multimer+ CD8+
Text: In order to perform in vitro stimulations by artificial antigen presenting cells (aAPC) loaded with peptide-MHC complex (pMHC) and anti-CD28 antibody, we first isolated CD8 T cells from fresh HLA-A*24 leukapheresis products of healthy donors obtained from the Blood Bank Tuebingen.
CD8 T cells were either directly enriched from the leukapheresis product or PBMCs (peripheral blood mononuclear cells) were isolated first by using standard gradient separation medium (PAA, Cölbe, Germany). Isolated CD8 lymphocytes or PBMCs were incubated until use in T-cell medium (TCM) consisting of RPMI-Glutamax (Invitrogen, Karlsruhe, Germany) supplemented with 10% heat inactivated human AB serum (PAN-Biotech, Aidenbach, Germany), 100 U/ml Penicillin/100 μg/ml Streptomycin (Cambrex, Cologne, Germany), 1 mM sodium pyruvate (CC Pro, Oberdorla, Germany), 20 μg/ml Gentamycin (Cambrex). […] Isolation of CD8+ lymphocytes was performed by positive selection using CD8 MicroBeads (Miltenyi Biotec, Bergisch-Gladbach, Germany).
800.000 beads/200 μl were coated in 96-well plates in the presence of 600 ng biotin anti-CD28 plus 200 ng relevant biotin-pMHC (high density beads). Stimulations were initiated in 96-well plates by co-incubating 1×10^6 CD8+ T cells with 2×10^5 washed coated beads in 200 μl TCM supplemented with 5 ng/ml IL-12 (PromoCell) for 3-4 days at 37° C. Half of the medium was then exchanged by fresh TCM supplemented with 80 U/ml IL-2 and incubating was continued for 3-4 days at 37° C. This stimulation cycle was performed for a total of three times. […] For analysis, a BD LSRII SORP cytometer equipped with appropriate lasers and filters was used. Peptide specific cells were calculated as percentage of total CD8+ cells. Evaluation of multimeric analysis was done using the FlowJo software (Tree Star, Oregon, USA). In vitro priming of specific multimer+ CD8+ lymphocytes was detected by appropriate gating and by comparing to negative control stimulations.

| Sequence | Positive donors/donors tested [%] | Positive wells/wells tested [%] |
| --- | --- | --- |
| AYLVYTDRL (listed as Homo sapiens) [PPAP2C-001] | 100 | 54 |
| FYISPVNKL (listed as Homo sapiens) [AVL9-001] | 100 | 50 |
| HYKPTPLYF (listed as Homo sapiens) [SMC4-001] | 75 | 9 |
| LYQILQGIVF (listed as Homo sapiens) [CDC2-001] | 88 | 28 |
| NYLLYVSNF (listed as Homo sapiens) [MST1R-001] | 50 | 14 |
| NYLPFIMEL (listed as Homo sapiens) [UCHL5-001] | 75 | 14 |
| RFLSGIINF (listed as Homo sapiens) [NUF2-002] | 50 | 4 |
| SYIDVLPEF (listed as Homo sapiens) [MET-006] | 63 | 22 |
| SYIIDPLNL (listed as Homo sapiens) [PROM1-001] | 83 | 26 |
| SYNPLWLRI (listed as Homo sapiens) [ASPM-002] | 63 | 31 |
| TYGNLLDYL (listed as Homo sapiens) [ABL1-001] | 50 | 13 |
| VWSDVTPLTF (listed as Homo sapiens) [MMP11-001] | 33 | 11 |
| VYGIRLEHF (listed as Homo sapiens) [NUF2-001] | 100 | 25 |
| VYIEKNDKL (listed as Homo sapiens) [ERBB3-001] | 83 | 15 |
| YYNAAGFNKL (listed as Homo sapiens) [UQCRB-001] | 100 | 38 |

system: anti-survivin T-cell response; experiment: Phase I/II vaccination study, T cell response (IFN-g ELISPOT, +/-ICS); type: in vivo, human; settings: among the 16 reacting patients

| Sequence | patients with induction of an anti-survivin T-cell response upon vaccination |
| --- | --- |
| TLGEFLKLDRERAKN (listed as Homo sapiens) [IMA-BIR-002] | 12 |

same assay, conditions: of the 19 patients, prostate carcinoma, s.c. vaccination

| Sequence | patients who reacted to the peptide (IFN-g ELISPOT, +/-ICS) |
| --- | --- |
| TLGEFLKLDRERAKN (listed as Homo sapiens) [IMA-BIR-002] | 16 |
